tested on: MOLM-13 cells; test: Cell proliferation assay (alamarBlue), MOLM-13; assay type: cell-based; details: Homo sapiens, MOLM-13; acute myeloid leukaemia cell line, 96 h incubation
Protocol: In accordance with the invention, the ability of the substances to inhibit cell proliferation was determined. Cell viability was determined by means of the alamarBlue® reagent (Invitrogen) in a Victor X3 Multilabel Reader (Perkin Elmer). The excitation wavelength was 530 nm and the emission wavelength […].
The MOLM-13 cells (DSMZ, ACC 554) were sown at a concentration of 4000 cells/well in 100 μl of growth medium (RPMI1640, 10% FCS) on 96-well microtitre plates.
The MDA-MB-231 cells (DSMZ, ACC 732) were sown at a concentration of 4000 cells/well in 100 μl of growth medium (DMEM/Ham's F12 medium, 10% FCS) on 96-well microtitre plates. After overnight incubation at 37° C., the fluorescence values (CI values) were determined. Then the plates were treated with various substance dilutions (1E-5 M, 3E-6 M, 1E-6 M, 3E-7 M, 1E-7 M, 3E-8 M, 1E-8 M) and incubated at 37° C. for 72 (MV4-11, LOX-IMVI cells), 96 (MOLM-13, B16F10, […] cells), 120 (MOLP-8, KMS-12-PE cells) or 168 (LAPC-4 cells) hours. Subsequently, the fluorescence values were determined (CO values). For the data analysis, the CI values were subtracted from the CO values and the results were compared between cells which had been treated with various dilutions of the substance or only with buffer solution. This was used to calculate the IC50 values (substance concentration required for 50% inhibition of cell proliferation).
The substances were examined in the cell lines of Table 1 which, in an exemplary manner, represent the stated indications: […]

SMILES	IC50 [nM]
CNC(=O)N1N=C(c2ccc(N3[C@@H]4CC[C@H]3CC(=O)C4)cc2)c2cc(OC)c(OC)cc2CC1C (mixture of isomers) [Example 6, (±)-7,8-dimethoxy-N,4-dimethyl-1-[4-(3-oxo-8-azabicyclo[3.2.1]oct-8-yl)phenyl]-4,5-dihydro-3H-2,3-benzodiazepine-3-carboxamide]	180

target: T1, BRD4 (BD1) (Homo sapiens, UniProt O60885); test: Binding assay BRD4/acetylated peptide H4 (TR-FRET protein-protein interaction assay); details: BRD4 (BD1) / acetylated histone H4 peptide
T1 construct: longer constructs also being possible, preferably amino acids 44-168; made in house; host or cells: E. coli
From the text: To assess the BRD4 binding strength of the substances described in this application, the ability thereof to inhibit the interaction between BRD4 (BD1) and acetylated histone H4 in a dose-dependent manner was quantified.
For this purpose, a time-resolved fluorescence resonance energy transfer (TR-FRET) assay was used, which measures the binding between N-terminally His6-tagged BRD4 (BD1) (amino acids 67-152, longer constructs also being possible, preferably amino acids 44-168) and a synthetic acetylated histone H4 (Ac—H4) peptide with sequence GRGK(Ac)GGK(Ac)GLGK(Ac)GGAK(Ac)RHGSGSK-biotin. The recombinant BRD4 protein produced in-house according to Filippakopoulos et al., Nature, 2010, 468:1119-1123 was expressed in E. coli and purified by means of (Ni-NTA) affinity and (Sephadex G-75) size exclusion chromatography. The Ac—H4 peptide can be purchased, for example, from Biosyntan (Berlin, Germany).
In the assay, typically 11 different concentrations of each substance (0.1 nM, 0.33 nM, 1.1 nM, 3.8 nM, 13 nM, 44 nM, 0.15 μM, 0.51 μM, 1.7 μM, 5.9 μM and 20 μM) were analysed as duplicates on the same microtitre plate. For this purpose, 100-fold concentrated solutions in DMSO were prepared by serial dilutions (1:3.4) of a 2 mM stock solution into a clear, 384-well microtitre plate (Greiner Bio-One, Frickenhausen, Germany). From this, 50 nl were transferred into a black test plate (Greiner Bio-One, Frickenhausen, Germany). The test was started by the addition of 2 μl of a 2.5-fold concentrated BRD4 solution (final concentration typically 10 nM in the 5 μl of reaction volume) in aqueous assay buffer [50 mM HEPES pH 7.5, 50 mM sodium chloride (NaCl), 0.25 mM CHAPS and 0.05% serum albumin (BSA)] to the substances in the test plate. This was followed by a 10-minute incubation step at 22° C. for the pre-equilibration of putative complexes between BRD4 and the substances.
The mixture was then incubated in the dark at 22° C. for one hour and then at 4° C. for at least 3 hours and for no longer than overnight. The formation of BRD4/Ac—H4 complexes was determined by the measurement of the resonance energy transfer from the streptavidin-Eu cryptate to the anti-6His-XL665 antibody present in the reaction. For this purpose, the fluorescence emission was measured at 620 nm and 665 nm after excitation at 330-350 nm in a TR-FRET measuring instrument, for example a Rubystar or Pherastar (both from BMG Lab Technologies, Offenburg, Germany) or a Viewlux (Perkin-Elmer). The ratio of the emissions at 665 nm and at […] was taken as an indicator of the amount of BRD4/Ac—H4 complexes formed.
The data (ratios) obtained were normalized, with 0% inhibition corresponding to the mean from the measurements for a set of controls (typically 32 data points) in which all the reagents were present. In these, in place of test substances, 50 nl of DMSO (100%) were used. Inhibition of 100% corresponded to the mean from the measurements for a set of controls (typically 32 data points) in which all the reagents except BRD4 were present. The IC50 was determined by regression analysis based on a 4-parameter equation (minimum, maximum, IC50, Hill; Y=max+(min−max)/(1+(X/IC50)^Hill)).

SMILES	IC50 [nM]
CNC(=O)N1N=C(c2ccc(N3[C@@H]4CC[C@H]3CC(=O)C4)cc2)c2cc(OC)c(OC)cc2CC1C (mixture of isomers) [Example 6, (±)-7,8-dimethoxy-N,4-dimethyl-1-[4-(3-oxo-8-azabicyclo[3.2.1]oct-8-yl)phenyl]-4,5-dihydro-3H-2,3-benzodiazepine-3-carboxamide]	30
CNC(=O)N1N=C(c2ccc(N3C[C@@H]4C[C@H]3CO4)cc2)c2cc(OC)c(OC)cc2C[C@@H]1C [Example 35, (4S)-7,8-dimethoxy-N,4-dimethyl-1-{4-[(1S,4S)-2-oxa-5-azabicyclo[2.2.1]hept-5-yl]phenyl}-4,5-dihydro-3H-2,3-benzodiazepine-3-carboxamide]	4110
CNC(=O)N1N=C(c2ccc(N3CCC4(CC3)COC(=O)N4)cc2)c2cc(OC)c(OC)cc2CC1C (racemic) [Example 32]	110
CNC(=O)N1N=C(c2ccc(N3CC4(CCS4(=O)=O)C3)cc2)c2cc(OC)c(OC)cc2C[C@H]1C [Example 3.2, (4R)-1-[4-(1,1-Dioxido-1-thia-6-azaspiro[3.3]hept-6-yl)phenyl]-7,8-dimethoxy-N,4-dimethyl-4,5-dihydro-3H-2,3-benzodiazepine-3-carboxamide]	2580
CNC(=O)N1N=C(c2ccc(N3CC4(CCS4(=O)=O)C3)cc2)c2cc(-n3nc(C)cc3C)ccc2CC1C (racemic) [Example 17, (±)-8-(3,5-dimethyl-1H-pyrazol-1-yl)-1-[4-(1,1-dioxido-1-thia-6-azaspiro[3.3]hept-6-yl)phenyl]-N,4-dimethyl-4,5-dihydro-3H-2,3-benzodiazepine-3-carboxamide]	40
CNC(=O)N1N=C(c2ccc(N3C(=O)[C@@H]4CC[C@H]3C4)cc2)c2cc(OC)c(OC)cc2C[C@@H]1C (relative stereo) [Example 2, {1S-[1R*,2(S*),4S*]}-7,8-dimethoxy-N,4-dimethyl-1-[4-(-3-oxo-2-azabicyclo[2.2.1]hept-2-yl)phenyl]-4,5-dihydro-3H-2,3-benzodiazepine-3-carboxamide]	20
CNC(=O)N1N=C(c2ccc(N3CC4(C3)CS(=O)(=O)C4)cc2)c2cc(OC)c(OC)cc2CC1C (racemic) [Example 34, (±)-1-[4-(2,2-dioxido-2-thia-6-azaspiro[3.3]hept-6-yl)phenyl]-7,8-dimethoxy-N,4-dimethyl-4,5-dihydro-3H-2,3-benzodiazepine-3-carboxamide]	70
CNC(=O)N1N=C(c2ccc(N3C4CCC3CC(=O)NC4)cc2)c2cc(OC)c(OC)cc2CC1C (racemic) [Example 39, (±)-7,8-Dimethoxy-N,4-dimethyl-1-[4-(4-oxo-3,9-diazabicyclo[4.2.1]non-9-yl)phenyl]-4,5-dihydro-3H-2,3-benzodiazepine-3-carboxamide]	120
CNC(=O)N1N=C(c2ccc(N3CCC4(CCN(C)C4)CC3)cc2)c2cc(OC)c(OC)cc2CC1C (racemic) [Example 31, (±)-7,8-dimethoxy-N,4-dimethyl-1-[4-(2-methyl-2,8-diazaspiro[4.5]dec-8-yl)phenyl]-4,5-dihydro-3H-2,3-benzodiazepine-3-carboxamide]	100
CNC(=O)N1N=C(c2ccc(N3CCC4(CC3)CNC(=O)C4)cc2)c2cc(OC)c(OC)cc2CC1C (racemic) [Example 28, (±)-7,8-Dimethoxy-N,4-dimethyl-1-[4-(3-oxo-2,8-diazaspiro[4.5]dec-8-yl)phenyl]-4,5-dihydro-3H-2,3-benzodiazepine-3-carboxamide]	100

The remaining lines, values ahead:

IC50 [nM]	SMILES
1360	CNC(=O)N1N=C(c2ccc(N3CC4(COC4)C3)cc2)c2cc(OC)c(OC)cc2C[C@H]1C [Example 5.2, (4R)-7,8-dimethoxy-N,4-dimethyl-1-[4-(2-oxa-6-azaspiro[3.3]hept-6-yl)phenyl]-4,5-dihydro-3H-2,3-benzodiazepine-3-carboxamide]
380	CNC(=O)N1N=C(c2ccc(F)c(N3C[C@@H]4C[C@H]3CN4C)c2)c2cc(OC)c(OC)cc2C[C@@H]1C (relative stereo) [Example 41.2, [1S-(1R*,2(R*),4R*)]-1-[4-fluoro-3-(5-methyl-2,5-diazabicyclo[2.2.1]hept 2-yl)phenyl]-7,8-dimethoxy-4,5-dihydro-N,4-dimethyl-3H-2,3-benzodiazepine-3-carboxamide]
2050	CNC(=O)N1N=C(c2ccc(N3CC4(CN(C(=O)OC(C)(C)C)C4)C3)cc2)c2cc(OC)c(OC)cc2C[C@H]1C [Example 8.2, tert-butyl 6-{4-[(4R)-7,8-dimethoxy-4-methyl-3-(melhylcarbamoyl)-4,5-dihydro-3H-2,3-benzodiazepine-1-yl]phenyl}-2,6-diazaspiro[3.3]heptane-2-carboxylate]
11500	CNC(=O)N1N=C(c2ccc(N3CC4(CCS4(=O)=O)C3)cc2)c2cc(OC(F)(F)F)ccc2C[C@H]1C [Example 18.1, (4R)-1-[4-(1,1-dioxido-1-thia-6-azaspiro[3.3]hept-6-yl)phenyl]-N,4-dimethyl-8-(trifluoromethoxy)-4,5-dihydro-3H-2,3-benzodiazepine-3-carboxamide]
520	CNC(=O)N1N=C(c2ccc(N3C[C@@H]4C[C@H]3CN4C)cc2)c2cc(OC)c(OC)cc2C[C@@H]1C (relative stereo) [Example 40.2, [1S-[1R*,2(R*),4R*]]-7,8-Dimethoxy-N,4-dimethyl-1-[4-(5-methyl-2,5-diazabicyclo[2.2.1]hept-2-yl)phenyl]-4,5-dihydro-3H-2,3-benzodiazepine-3-carboxamide]
200	CNC(=O)N1N=C(c2ccc(N3CCC4(CCCC4)CC3)cc2)c2cc(OC)c(OC)cc2C[C@@H]1C [Example 9.1, (4S)-1-[4-(8-azaspiro[4.5]dec-8-yl)phenyl]-7,8-dimethoxy-N,4-dimethyl-4,5-dihydro-3H-2,3-benzodiazepine-3-carboxamide]
16500	CNC(=O)N1N=C(c2ccc(F)c(N3C[C@@H]4C[C@H]3CN4C)c2)c2cc(OC)c(OC)cc2C[C@H]1C (relative stereo) [Example 41.1, [1S-(1R*,2(S*),4R*)]-1-[4-fluoro-3-(5-methyl-2,5-diazabicyclo[2.2.1]hept-2-yl)phenyl]-7,8-dimethoxy-4,5-dihydro-N,4-dimethyl-3H-2,3-benzodiazepine-3-carboxamide]
> 20000	CNC(=O)N1N=C(c2ccc(N3CCC4(CCCC4)CC3)cc2)c2cc(OC)c(OC)cc2C[C@H]1C [Example 9.2, (4R)-1-[4-(8-azaspiro[4.5]dec-8-yl)phenyl]-7,8-dimethoxy-N,4-dimethyl-4,5-dihydro-3H-2,3-benzodiazepine-3-carboxamide]
